Data set [1] relates to Meloidogyne incognita. As to the kind of experiment: M. incognita miniaturized greenhouse assay on cucumber seedlings. The settings on record: 1 ppm; Table 1C test a. It counts as in vivo. The procedure:
The test compound is dissolved in an acetone solution and added to water. A sprouted cucumber seedling is placed into a vial with dry sand and the water-chemical solution is added immediately. Twenty four hours later Meloidogyne incognita eggs are added to the vials and 10 to 12 days later the roots are evaluated for nematode galling.
Cucumber seeds are sprouted for 3 days in moist paper towels. Acceptable sprouts should be 3 to 4 cm long with several lateral roots just emerging. Stock solutions of chemistry are prepared in a mixture of acetone and Triton X100 (412 mg in 500 mL) to a final concentration of 5 mg/mL. The chemical stock solution is then added to 10 mL deionized water plus 0.015% Triton X100 and mixed thoroughly. This is enough to test each condition in triplicate. Ten mL dry sand is added to each vial. At this time the solubility of the chemistry is visually determined and recorded as either ppt (large precipitates) or cloudy (fine precipitates). Seedlings are planted by tilting the vial and laying the seedling in the correct orientation so that the cotyledons are just above the sand and then tilting back to cover the radicles with sand. 3.3 ml water/chemical mix is added to each vial and the vials placed in racks under fluorescent light banks. The vials are inoculated two days after planting by adding 500 vermiform M. incognita eggs to each vial in 50 uL of deionized or spring water. The vials are then kept under the fluorescent lamps at ambient room temperature and watered as needed with 1mL deionized water, usually twice during duration of test. Harvest of the cucumber plants is done 10 to 12 days after inoculation by washing sand off the roots. A root gall rating and visual phytotoxicity rating is assigned using the following scales: Gall rating scale (Gall: % root mass galled): 0=0-5%; 1=6-20%; 2=21-50%; and 3=51-100%. The average of the triplicate gall rating is then calculated: green=0.00-0.33 (no galls); yellow=0.67-1.33 (mild galling); orange=1.67-2.33 (moderate galling); red=2.67-3.00 (severe galling). Visual phytotoxicity scale is also assigned (Vis. tox; visual reduction in root mass compared to the control): rs1=mild stunting; rs2=moderate stunting; rs3=severe stunting.

Data set [2] is classed as in vivo. Particulars: three female mice, observed up to 14 days. On the procedure:
Acute oral toxicity testing was performed in mice in accordance with test method P203.UDP, as administered by Eurofins/Product Safety Laboratories (Dayton, New Jersey). CD-1/Swiss derived albino mice were obtained and group housed in suspended solid bottom caging. The mice were fed rodent chow and filtered tap water was supplied ad libitum. Following acclimation to the laboratory setting, a group of animals was fasted overnight by removing food from the cages. After the fasting period, three female mice were selected based on vitality and initial body weights. The individual compound doses were calculated from these body weights.
The test substance was prepared as a 1% (50 mg/kg) or 5% (500 mg/kg) weight to weight (w/w) mixture in a 0.5% w/w solution of carboxymethylcellulose (CMC) in distilled water. A tissue homogenizer was used to create a homogeneous mixture. A dose of 50 or 500 mg/kg was administered to three healthy mice per dose level by oral intubation using a ball-tipped gavage needle attached to a syringe. After administration, the animals were returned to their cages, and feed was replaced immediately after dosing.
Body weights were recorded prior to initiation and on Days 7 and 14 or a soon as possible after death.

The subject of a further data set is root knot nematode (RKN). As to the kind of experiment: RKN greenhouse soil assay on cucumber plants. It counts as in vivo. Particulars: Radex emulsifiable concentrate formulation (6.25% active ingredient).
The next data set relates to C. elegans. Put plainly: Three day C. elegans well assay. It counts as in vivo. Particulars: Caenorhabditis elegans. The method in brief:
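Contact assay in wells: DMSO dilutions (4 ul from 100× stocks at 10 mg/ml) with bacterial feed in M9 buffer plus ampicillin and nystatin. L1 (starvation-arrested) or L4 worms added, shaken at 20° C. Scored at 4, 24, 48 and 72 hours.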

Data set [3] has as its system Meloidogyne incognita. As to the kind of experiment: Summer field evaluation of pre-plant incorporated compounds on squash. The data set is classed as in vivo. The settings on record: 4 kg/ha. Put shortly:
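Compound in acetone/Triton X-100 emulsion mixed into sand/silt loam with galled tomato roots, filling top 15 cm of field plots (pre-plant incorporated), 6 replicates. Plots inoculated with 100k M. incognita eggs/larvae at 5 cm depth. Squash cv. Liberator III transplanted 4 days after treatment.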

Data set [4] has as its system Caenorhabditis elegans ced-3(n717) and ced-4(N1162) mutants. As to the kind of experiment: Susceptibility of C. elegans apoptosis mutants on NGM agar plates. The data set is classed as in vivo. Particulars: 10μg/ml on NGM agar plates.

This note sets out measurements from patent publication US20170367338A1, “COMPOSITIONS AND METHODS FOR IMPROVING AGRONOMIC CHARACTERISTICS OF PLANTS” (MONSANTO TECHNOLOGY LLC, priority 2014, published 2017).

In brackets after ≈: the same amount, converted by molar mass. Read-outs that look alike come from different tables or passages of the source.

`c1ccc(-c2noc(-c3cccs3)n2)cc1` [compound 1822]: the “1 ppm gall rating” value in the data set on Meloidogyne incognita [1] is reported as 0 (0=0-5%). In addition, the “acute oral toxicity: mortality and signs” value in data set [2] (50 mg/kg oral) was “all animals survived”; in data set [2] (500 mg/kg oral), “all animals died within three days”. Also, in the data set on root knot nematode (RKN), the “percent control (galling reduction), Radex 1 mg/kg” value is recorded as 98%.

For `Cc1cc(Cl)ccc1-c1noc(-c2ccco2)n1` [compound 5823], the half-maximal effective concentration (EC50) in the data set with C. elegans (24 h, L1 larvae, one day of exposure, read-out: EC50 L1 1D) was 0.4 µg/mL (≈ 1.53 µM); in the data set with C. elegans (24 h, L4 larvae, one day of exposure, read-out: EC50 L4 1D) it was 1.6 µg/mL (≈ 6.14 µM); with C. elegans (48 h, L1 larvae, two days of exposure, read-out: EC50 L1 2D), 0.4 µg/mL (≈ 1.53 µM); in the data set on C. elegans (48 h, L4 larvae, two days of exposure, read-out: EC50 L4 2D), 0.4 µg/mL (≈ 1.53 µM); in the data set on C. elegans (72 h, L1 larvae, three days of exposure, read-out: EC50 L1 3D), 0.4 µg/mL (≈ 1.53 µM); with C. elegans (72 h, L4 larvae, three days, effects on the second generation larvae, read-out: EC50 L4 3D (F1)), 0.4 µg/mL (≈ 1.53 µM). In the data set on Meloidogyne incognita [3], the “control of M. incognita by PPI application” value is on record as “excellent control”. In addition, the “susceptibility of ced-3 and ced-4 mutants versus wild-type C. elegans (N2 Bristol), including time to mortality” value in data set [4] is “No observable phenotypic difference in susceptibility”.

What is called EC50 is the concentration giving half of the maximal effect.
